Converted amounts (≈) assume the structure as drawn. Where two headings read alike, the source gives them in different places. Peptide text beside a SMILES is read from it.
Tests used:
[1] = tested on: Cryptococcus neoformans IFM 5844; test: Minimal fungicidal concentration (MFC) determination, spotting on YPD; assay type: cell-based; conditions: cultures from MIC assays diluted and spotted onto solid YPD, 30 °C, 48 h
Method: Minimal fungicidal concentration (MFC) determination. To assess fungicidal activity, both control and peptide-treated cultures from the MIC assays were diluted 10-fold and 100-fold in sterile distilled water. Five µL from each dilution was then spotted onto solid YPD medium (1 % pepton, 1 % dextrose, 0.5 % yeast extract, 2 % agar). The plates were incubated at 30 °C for 48 h and fungal growth was evaluated. MFC was defined as the lowest peptide concentration at which no visible fungal growth was detected, indicating complete fungicidal activity.

[2] = tested on: C. neoformans IFM 5844 cells; test: Cell membrane permeability, calcein-AM assay by flow cytometry; assay type: cell-based, Cryptococcus neoformans; conditions: half-MIC, 2 h, 30 °C, YNB
Method: The effect of the peptides on the cell membrane permeability of C. neoformans IFM 5844 cells was checked by flow cytometry with calcein-AM assay ([Olson, et al., 2001]). Calcein-acetoxymethyl ester (calcein-AM) is a membrane-permeable live-cell dye that, upon entering the cell, is cleaved by intracellular esterases, converting it into calcein, a membrane-impermeable fluorescent marker. The assay was carried out by suspending a total of 1 × 10^7 cells in 100 µl YNB medium containing 20 µg/mL indomethacin (Sigma-Aldrich, Saint Louis, MO, USA) and incubating them at 30 °C for 30 min to inhibit calcein transporters. Following this pre-treatment, membrane-permeable calcein-AM (Invitrogen, Waltham, MA, USA) was added to a final concentration of 5 µg/mL, and the samples were incubated at 30 °C for 3 h allowing the calcein-AM to enter the cells where esterases converted it to fluorescent calcein. After incubation, cells were washed twice with sterile distilled water and subsequently exposed to peptides at half-MIC concentrations in YNB medium for 2 h at 30 °C. Following peptide treatment, cells were washed twice with sterile distilled water, and fluorescence intensity was measured using a FlowSight® flow cytometer (Amnis-EMD Millipore) equipped with a 488-nm excitation laser. Intact cells stained with calcein-AM but not exposed to peptides served as controls. To ensure statistical reliability, four independent experiments were conducted, and fluorescence intensity was recorded from 10,000 cells per sample during each experiment.

[3] = tested on: Cryptococcus neoformans IFM 5844; test: microbe, parasite or virus in culture; assay type: cell-based; conditions: five-fold diluted YNB + 1 % dextrose, 5 × 10^4 cells/mL, 30 °C, 72 h, OD 620 nm, ≥ 90 % growth inhibition, tested 25 to 0.39 µM, three biological replicates; read-out: MIC
Method: (§1) The susceptibility of Cryptococcus neoformans IFM 5844 to 20 peptides (Supplementary Table 1) was tested in a widely used synthetic medium to cultivate yeasts (YNB) and in a serum-free medium what is able to support the proliferation of macrophage cells (X-VIVO).
YNB medium: five-fold diluted Difco Yeast Nitrogen Base w/o Amino Acids medium (Becton, Dickinson and Company, Sparks, MD, USA) supplemented with 1 % dextrose
(§2) The minimal inhibitory concentration (MIC) of each peptide was determined by using micro-dilution assay. The C. neoformans suspensions were adjusted to 5 × 10^4 cells/mL concentration in either YNB or X-VIVO medium. A 96-well microtiter plate was prepared by adding 95 µL suspension per well followed by 5 µL of serially two-fold diluted peptide solutions achieving a final volume of 100 µl. The concentration of the peptides ranged from 25 to 0.39 µM. For control samples, 5 µL pure medium was added to the yeast cell suspension instead of peptides. Plates were incubated at 37 °C for 48 h in X-VIVO medium and 30 °C for 72 h in YNB medium. After incubation, optical density was measured at 620 nm using a SPECTROstar Nano plate reader (BMG LabTech, Offenburg, Germany). […] The experiments were carried out in three independent biological replicates.

[4] = tested on: Cryptococcus neoformans IFM 5844; assay type: cell-based; conditions: half-diluted X-VIVO 15 medium, 37 °C, 48 h, OD 620 nm, ≥ 90 % growth inhibition, tested 25 to 0.39 µM, three biological replicates
Method: as §1
X-VIVO medium: half-diluted X-VIVO™ 15 cell culture medium (Lonza, Verviers, Belgium).
as §2

[5] = tested on: J774.2 mouse macrophage cells; test: Cytotoxicity, MTT assay; assay type: cell-based; conditions: 25 µM, 3 h, X-VIVO medium, p ≤ 0.01
Method: J774.2 cells were cultured as described previously and seeded into microtiter plates at a density of 5 × 10⁴ cells per well. The cells were incubated at 37 °C under 5 % CO₂ and 95 % relative humidity in X-VIVO™ medium until they adhered to the plate surface. Following attachment, cells were treated with peptides at their respective MIC concentrations in X-VIVO medium for 3 h under the same incubation conditions.
After peptide treatment, cells were washed with PBS (phosphate-buffered saline) and incubated in X-VIVO™ medium supplemented with 0.5 mg/mL MTT reagent (3-[4,5-dimethylthiazol-2-yl]−2,5-diphenyltetrazolium bromide, Merck KGaA, Darmstadt, Germany). The MTT assay was used to evaluate cell viability by staining live cells, leading to the formation of formazan crystals. These crystals were dissolved in dimethyl sulfoxide (DMSO), and absorbance was measured at 570 nm using a SPECTROstar Nano plate reader (BMG LabTech, Offenburg, Germany). The absorbance of untreated control cells was set as 100 % viability, and experimental results were expressed relative to this control. Each experiment was conducted in at least three independent biological replicates to ensure statistical reliability.

C. neoformans cells = test: Effect of X1-NCR247C and calcofluor white on CFU; assay type: cell-based, Cryptococcus neoformans; conditions: calcofluor white 2.5 µg/mL alone, 20 min
Method: To assess the effect of X1-NCR247C peptide and calcofluor white, C. neoformans cells were subjected to different treatments. […] For staining, cells were treated with calcofluor white at 2.5 µg/mL for the same duration. As a control, cells were incubated only with calcofluor white for 20 min.
For combined treatment, cells were first exposed to calcofluor white (2.5 µg/mL) for 5 min, followed by the addition of X1-NCR247C (0.39 µM), and the incubation continued for 15 additional minutes. Following treatment, cells were washed once with sterile distilled water to remove residual peptide and dye. Serial 10-, 100-, 1000-, and 10,000-fold dilutions were prepared, and 50 µL from each dilution was plated onto solid YPD medium in triplicate. After 48 h of incubation at 30 °C, colony-forming units were counted to determine cell viability under each condition.

CC[C@H](C)[C@H](NC(=O)[C@H](CCCCN)NC(=O)[C@H](Cc1ccccc1)NC(=O)[C@H](CC(C)C)NC(=O)[C@@H]1CCCN1C(=O)[C@H](CCCCN)NC(=O)[C@H](CCCCN)NC(=O)[C@H](CO)NC(=O)[C@@H](N)CCCCN)C(=O)N[C@@H](C)C(=O)N[C@@H](CCCCN)C(=O)N[C@@H](CS)C(=O)N[C@H](C(=O)N[C@@H](CCC(=O)O)C(=O)N[C@@H](CC(N)=O)C(=O)N[C@H](C(=O)N[C@@H](CS)C(=O)N[C@H](C(=O)N[C@@H](CC(C)C)C(=O)N[C@@H](C)C(=O)N[C@@H](Cc1ccc(O)cc1)C(=O)N[C@@H](CCCCN)C(N)=O)C(C)C)C(C)C)C(C)C [NCR169C17–38W10,20/A] (H-KSKKPLFKIAKCVENVCVLAYK-NH2; N-terminus assumed)
fungistatic or fungicide mode of action [1]: fungicidal effect | calcein leakage / membrane permeability disruption [2]: highest calcein leakage | MIC [3]: 6.25 µM

CC[C@H](C)[C@H](NC(=O)[C@H](CCCCN)NC(=O)[C@H](Cc1ccccc1)NC(=O)[C@H](CC(C)C)NC(=O)[C@@H]1CCCN1C(=O)[C@H](CCCCN)NC(=O)[C@H](CCCCN)NC(=O)[C@H](CO)NC(=O)[C@@H](N)CCCCN)C(=O)N[C@@H](Cc1c[nH]c2ccccc12)C(=O)N[C@@H](CCCCN)C(=O)N[C@@H](CS)C(=O)N[C@H](C(=O)N[C@@H](CCC(=O)O)C(=O)N[C@@H](CC(N)=O)C(=O)N[C@H](C(=O)N[C@@H](CS)C(=O)N[C@H](C(=O)N[C@@H](CC(C)C)C(=O)N[C@@H](Cc1c[nH]c2ccccc12)C(=O)N[C@@H](Cc1ccc(O)cc1)C(=O)N[C@@H](CCCCN)C(N)=O)C(C)C)C(C)C)C(C)C [NCR169C17–38] (H-KSKKPLFKIWKCVENVCVLWYK-NH2; N-terminus assumed)
fungistatic or fungicide mode of action [1]: fungicidal effect | calcein leakage / membrane permeability disruption [2]: highest calcein leakage | MIC [3]: 3.12 µM

CC[C@H](C)[C@H](NC(=O)[C@H](CCCCN)NC(=O)[C@H](CCCCN)NC(=O)[C@H](C)NC(=O)[C@H](CC(C)C)NC(=O)[C@H](C)NC(=O)[C@H](C)NC(=O)[C@H](CC(C)C)NC(=O)[C@H](C)NC(=O)[C@H](CCCCN)NC(=O)[C@H](CCCNC(=N)N)NC(=O)[C@H](CCCNC(=N)N)NC(=O)[C@H](CCCNC(=N)N)NC(=O)[C@H](CS)NC(=O)[C@H](Cc1ccc(O)cc1)NC(=O)[C@H](CC(C)C)NC(=O)[C@@H]1CCCN1C(=O)[C@H](CCCNC(=N)N)NC(=O)[C@H](CCCNC(=N)N)NC(=O)[C@H](CS)NC(=O)[C@H](CCC(N)=O)NC(=O)[C@@H](N)CCC(N)=O)C(=O)N[C@@H](CC(C)C)C(N)=O [NCR247C-X2] (H-QQCRRPLYCRRRKALAALAKKIL-NH2; N-terminus assumed)
fungistatic or fungicide mode of action [1]: fungicidal effect | calcein leakage / membrane permeability disruption [2]: highest calcein leakage | proportion of calcein-stained cells ([2]; stained untreated control 75 %, four independent experiments): 8% | MIC [4]: 1.56 µM (≈ 4.3 µg/mL) | MIC [3]: 0.78 µM

CC(C)C[C@H](NC(=O)[C@@H]1CCCN1C(=O)[C@H](CCCNC(=N)N)NC(=O)[C@H](CCCNC(=N)N)NC(=O)[C@H](CS)NC(=O)[C@H](CCC(N)=O)NC(=O)[C@@H](N)CCC(N)=O)C(=O)N[C@@H](Cc1ccc(O)cc1)C(=O)N[C@@H](CS)C(=O)N[C@@H](CCCNC(=N)N)C(=O)N[C@@H](CCCNC(=N)N)C(=O)N[C@@H](CCCNC(=N)N)C(N)=O [NCR247C] (H-QQCRRPLYCRRR-NH2; N-terminus assumed)
fungistatic or fungicide mode of action [1]: fungicidal effect | calcein leakage / membrane permeability disruption [2]: highest calcein leakage | MIC [3]: 6.25 µM

CC[C@H](C)[C@H](NC(=O)[C@H](CCCCN)NC(=O)[C@H](CCCCN)NC(=O)[C@H](C)NC(=O)[C@H](CC(C)C)NC(=O)[C@H](C)NC(=O)[C@H](C)NC(=O)[C@H](CC(C)C)NC(=O)[C@H](C)NC(=O)[C@H](CCCCN)NC(=O)[C@H](CC(C)C)NC(=O)[C@H](CC(N)=O)NC(=O)[C@@H](NC(=O)[C@H](CCCCN)NC(=O)CNC(=O)[C@H](CC(C)C)NC(=O)[C@H](CC(C)C)NC(=O)[C@H](Cc1ccc(O)cc1)NC(=O)CNC(=O)[C@H](C)N)[C@@H](C)CC)C(=O)N[C@@H](CC(C)C)C(N)=O [TP10, reference compound]
macrophage viability compared to untreated control [5]: significantly reduced macrophage viability | MIC [3]: 12.5 µM

CC[C@H](C)[C@H](NC(=O)[C@H](CCCCN)NC(=O)[C@H](CCCCN)NC(=O)[C@H](C)NC(=O)[C@H](CC(C)C)NC(=O)[C@H](C)NC(=O)[C@H](C)NC(=O)[C@H](CC(C)C)NC(=O)[C@H](C)NC(=O)[C@@H](N)CCCCN)C(=O)N[C@@H](CC(C)C)C(=O)N[C@@H](CCC(N)=O)C(=O)N[C@@H](CCC(N)=O)C(=O)N[C@@H](CS)C(=O)N[C@@H](CCCNC(=N)N)C(=O)N[C@@H](CCCNC(=N)N)C(=O)N1CCC[C@H]1C(=O)N[C@@H](CC(C)C)C(=O)N[C@@H](Cc1ccc(O)cc1)C(=O)N[C@@H](CS)C(=O)N[C@@H](CCCNC(=N)N)C(=O)N[C@@H](CCCNC(=N)N)C(=O)N[C@@H](CCCNC(=N)N)C(N)=O [X2-NCR247C] (H-KALAALAKKILQQCRRPLYCRRR-NH2; N-terminus assumed)
fungistatic or fungicide mode of action [1]: fungicidal effect | calcein leakage / membrane permeability disruption [2]: highest calcein leakage | MIC [4]: 3.12 µM (≈ 8.6 µg/mL) | MIC [3]: 0.78 µM

O=S(=O)(O)c1cc(Nc2nc(Nc3ccccc3)nc(N(CCO)CCO)n2)ccc1/C=C/c1ccc(Nc2nc(Nc3ccccc3)nc(N(CCO)CCO)n2)cc1S(=O)(=O)O [calcofluor white, reference compound]
effect on CFU counts (C. neoformans cells): did not reduce CFU counts

From publication PMC12164026, “Plant-derived nodule-specific cysteine-rich peptides as potent antifungal agents against Cryptococcus neoformans: mechanisms of action, chimeric peptide enhancement, and immunomodulatory effects” (Current Research in Microbial Sciences, 2025)
